From patent US20210045385A1, “PYRIDAZINONE-SUBSTITUTED KETOXIMES AS HERBICIDES” (FMC Corporation, priority 2018, published 2021)

Columns and labels:
Format in all cases: in vivo
[1] = tested on: Italian ryegrass (Lolium mutiflorum); experiment: Test C preemergence, visual plant response rating
Excerpt: (§1) Seeds of plant species selected from barnyardgrass (Echinochloa crus-galli), kochia (Bassia scoparia), ragweed (common ragweed, Ambrosia artemisiifolia), Italian ryegrass (Lolium mutiflorum), foxtail, giant (giant foxtail, Setaria faberi), foxtail, green (green foxtail, Setaria viridis), and pigweed (Amaranthus retroflexus) were planted into a blend of loam soil and sand and treated preemergence with a directed soil spray using test chemicals formulated in anon-phytotoxic solvent mixture which included a surfactant.
(§2) At the same time, plants selected from these weed species and also wheat (Triticum aestivum), corn (Zea mays), blackgrass (Alopecurus myosuroides), and galium (catchweed bedstraw, Galium aparine) were planted in pots containing the same blend of loam soil and sand and treated with post emergence applications of test chemicals formulated in the same manner. Plants ranged in height from 2 to 10 cm and were in the one- to two-leaf stage for the postemergence treatment. Treated plants and untreated controls were maintained in a greenhouse for approximately 10 d, after which time all treated plants were compared to untreated controls and visually evaluated for injury. Plant response ratings, summarized in Table C, are based on a 0 to 100 scale where 0 is no effect and 100 is complete control. A dash (-)response means no test result.

[2] = tested on: barnyardgrass (Echinochloa crus-galli); experiment: Test C preemergence, visual plant response rating
Excerpt: as §1, §2

[3] = tested on: foxtail, giant (giant foxtail, Setaria faberi); experiment: Test C preemergence, visual plant response rating
Excerpt: as §1, §2

[4] = tested on: kochia (Bassia scoparia); experiment: Test C preemergence, visual plant response rating
Excerpt: as §1, §2

[5] = tested on: pigweed (Amaranthus retroflexus); experiment: Test C preemergence, visual plant response rating
Excerpt: as §1, §2

[6] = tested on: Italian ryegrass (Lolium mutiflorum); experiment: Test C postemergence, visual plant response rating
Excerpt: as §1, §2

[7] = tested on: barnyardgrass (Echinochloa crus-galli); experiment: Test C postemergence, visual plant response rating
Excerpt: as §1, §2

[8] = tested on: blackgrass (Alopecurus myosuroides); experiment: Test C postemergence, visual plant response rating
Excerpt: as §1, §2

[9] = tested on: corn (Zea mays); experiment: Test C postemergence, visual plant response rating
Excerpt: as §1, §2

[10] = tested on: foxtail, giant (giant foxtail, Setaria faberi); experiment: Test C postemergence, visual plant response rating
Excerpt: as §1, §2

[11] = tested on: galium (catchweed bedstraw, Galium aparine); experiment: Test C postemergence, visual plant response rating
Excerpt: as §1, §2

[12] = tested on: kochia (Bassia scoparia); experiment: Test C postemergence, visual plant response rating
Excerpt: as §1, §2

[13] = tested on: pigweed (Amaranthus retroflexus); experiment: Test C postemergence, visual plant response rating
Excerpt: as §1, §2

[14] = tested on: ragweed (common ragweed, Ambrosia artemisiifolia); experiment: Test C postemergence, visual plant response rating
Excerpt: as §1, §2

[15] = tested on: wheat (Triticum aestivum); experiment: Test C postemergence, visual plant response rating
Excerpt: as §1, §2

[16] = tested on: barnyardgrass (Echinochloa crus-galli); experiment: Test D flooded paddy test, visual plant response rating; conditions: 250 g ai/ha, scale 0 to 100 (0 no effect, 100 complete control), 13 to 15 d
Protocol: (§3) Plant species in the flooded paddy test selected from rice (Oryza sativa), sedge umbrella (small-flower umbrella sedge, Cyperus difformis) duck salad (Heteranthera limosa), and barnyardgrass (Echinochloa crus-galli) were grown to the 2-leaf stage for testing. At time of treatment, test pots were flooded to 3 cm above the soil surface, treated by application of test compounds directly to the paddy water, and then maintained at that water depth for the duration of the test. Treated plants and controls were maintained in a greenhouse for 13 to 15 d, after which time all species were compared to controls and visually evaluated. Plant response ratings, summarized in Table D, are based on a scale of 0 to 100 where 0 is no effect and 100 is complete control. A dash (-) response means no test result.

[17] = tested on: duck salad (Heteranthera limosa); experiment: as above; conditions: 250 g ai/ha, scale 0 to 100 (0 no effect, 100 complete control), 13 to 15 d
Protocol: as §3

[18] = tested on: rice (Oryza sativa); experiment: as above; conditions: 250 g ai/ha, scale 0 to 100 (0 no effect, 100 complete control), 13 to 15 d
Protocol: as §3

[19] = tested on: sedge umbrella (small-flower umbrella sedge, Cyperus difformis); experiment: as above; conditions: 250 g ai/ha, scale 0 to 100 (0 no effect, 100 complete control), 13 to 15 d
Protocol: as §3

[20] = Test C, 31 g ai/ha, 0 is no effect, 100 is complete control
[21] = Test C, postemergence, 125 g ai/ha

## CCON=C(c1cc(Cl)cc(Br)c1)c1c(O)c(C)nn(C)c1=O [Compound 181]
[1]; 125 g ai/ha
  Ryegrass, Italian plant response rating (0 to 100 scale): 90
[1]; [20]
  Ryegrass, Italian plant response rating (0 to 100 scale): 0
[2]; 125 g ai/ha
  Barnyardgrass plant response rating (0 to 100 scale): 60
[2]; [20]
  Barnyardgrass plant response rating (0 to 100 scale): 0
[3]; 125 g ai/ha
  Foxtail, Giant plant response rating (0 to 100 scale): 90
[3]; [20]
  Foxtail, Giant plant response rating (0 to 100 scale): 50
[4]; 125 g ai/ha
  Kochia plant response rating (0 to 100 scale): 70
[4]; [20]
  Kochia plant response rating (0 to 100 scale): 30
[5]; 125 g ai/ha
  Pigweed plant response rating (0 to 100 scale): 90
[5]; [20]
  Pigweed plant response rating (0 to 100 scale): 30
[6]; Postemergence, 31 g ai/ha
  Ryegrass, Italian plant response rating (0 to 100 scale): 70
[6]; [21]
  Ryegrass, Italian plant response rating (0 to 100 scale): 100
[7]; Postemergence, 31 g ai/ha
  Barnyardgrass plant response rating (0 to 100 scale): 40
[7]; [21]
  Barnyardgrass plant response rating (0 to 100 scale): 60
[8]; Postemergence, 31 g ai/ha
  Blackgrass plant response rating (0 to 100 scale): 0
[8]; [21]
  Blackgrass plant response rating (0 to 100 scale): 20
[9]; Postemergence, 31 g ai/ha
  Corn plant response rating (0 to 100 scale): 0
[9]; [21]
  Corn plant response rating (0 to 100 scale): 30
[10]; Postemergence, 31 g ai/ha
  Foxtail, Giant plant response rating (0 to 100 scale): 50
[10]; [21]
  Foxtail, Giant plant response rating (0 to 100 scale): 80
[11]; Postemergence, 31 g ai/ha
  Galium plant response rating (0 to 100 scale): 100
[11]; [21]
  Galium plant response rating (0 to 100 scale): 100
[12]; Postemergence, 31 g ai/ha
  Kochia plant response rating (0 to 100 scale): 60
[12]; [21]
  Kochia plant response rating (0 to 100 scale): 80
[13]; Postemergence, 31 g ai/ha
  Pigweed plant response rating (0 to 100 scale): 40
[13]; [21]
  Pigweed plant response rating (0 to 100 scale): 90
[14]; Postemergence, 31 g ai/ha
  Ragweed plant response rating (0 to 100 scale): 100
[14]; [21]
  Ragweed plant response rating (0 to 100 scale): 100
[15]; Postemergence, 31 g ai/ha
  Wheat plant response rating (0 to 100 scale): 0
[15]; [21]
  Wheat plant response rating (0 to 100 scale): 50
[16]
  Plant response rating, Barnyardgrass (Flood): 0
[17]
  Plant response rating, Ducksalad (Flood): 0
[18]
  Plant response rating, Rice (Flood): 0
[19]
  Plant response rating, Sedge, Umbrella (Flood): 0

## Cc1nn(C)c(=O)c(C(=NOCC2CC2)c2cc(Cl)cc(Cl)c2Cl)c1O [Compound 182]
[1]; 125 g ai/ha
  Ryegrass, Italian plant response rating (0 to 100 scale): 100
[1]; [20]
  Ryegrass, Italian plant response rating (0 to 100 scale): 30
[2]; 125 g ai/ha
  Barnyardgrass plant response rating (0 to 100 scale): 90
[2]; [20]
  Barnyardgrass plant response rating (0 to 100 scale): 0
[3]; 125 g ai/ha
  Foxtail, Giant plant response rating (0 to 100 scale): 100
[3]; [20]
  Foxtail, Giant plant response rating (0 to 100 scale): 70
[4]; 125 g ai/ha
  Kochia plant response rating (0 to 100 scale): 0
[4]; [20]
  Kochia plant response rating (0 to 100 scale): 0
[5]; 125 g ai/ha
  Pigweed plant response rating (0 to 100 scale): 70
[5]; [20]
  Pigweed plant response rating (0 to 100 scale): 0
[6]; Postemergence, 31 g ai/ha
  Ryegrass, Italian plant response rating (0 to 100 scale): 70
[6]; [21]
  Ryegrass, Italian plant response rating (0 to 100 scale): 100
[7]; Postemergence, 31 g ai/ha
  Barnyardgrass plant response rating (0 to 100 scale): 50
[7]; [21]
  Barnyardgrass plant response rating (0 to 100 scale): 60
[8]; Postemergence, 31 g ai/ha
  Blackgrass plant response rating (0 to 100 scale): 10
[8]; [21]
  Blackgrass plant response rating (0 to 100 scale): 10
[9]; Postemergence, 31 g ai/ha
  Corn plant response rating (0 to 100 scale): 0
[9]; [21]
  Corn plant response rating (0 to 100 scale): 30
[10]; Postemergence, 31 g ai/ha
  Foxtail, Giant plant response rating (0 to 100 scale): 70
[10]; [21]
  Foxtail, Giant plant response rating (0 to 100 scale): 90
[11]; Postemergence, 31 g ai/ha
  Galium plant response rating (0 to 100 scale): 70
[11]; [21]
  Galium plant response rating (0 to 100 scale): 100
[12]; Postemergence, 31 g ai/ha
  Kochia plant response rating (0 to 100 scale): 10
[12]; [21]
  Kochia plant response rating (0 to 100 scale): 70
[13]; Postemergence, 31 g ai/ha
  Pigweed plant response rating (0 to 100 scale): 10
[13]; [21]
  Pigweed plant response rating (0 to 100 scale): 50
[14]; Postemergence, 31 g ai/ha
  Ragweed plant response rating (0 to 100 scale): 40
[14]; [21]
  Ragweed plant response rating (0 to 100 scale): 100
[15]; Postemergence, 31 g ai/ha
  Wheat plant response rating (0 to 100 scale): 0
[15]; [21]
  Wheat plant response rating (0 to 100 scale): 70
[16]
  Plant response rating, Barnyardgrass (Flood): 0
[17]
  Plant response rating, Ducksalad (Flood): 0
[18]
  Plant response rating, Rice (Flood): 0
[19]
  Plant response rating, Sedge, Umbrella (Flood): 0
